Structures are written as SMILES.

Common to all, as to details: Table 35
One assay has as its target RIP1 (Homo sapiens (Human), UniProt Q13546). Put plainly: KINOMEscan binding assay, RIP1.
The target of another assay is RIP3 (Homo sapiens (Human), UniProt Q9Y572). Put plainly: KINOMEscan binding assay, RIP3. How it is done:
(§1) Kinase assays. For most assays, kinase-tagged T7 phage strains were grown in parallel in 24-well blocks in an E. coli host derived from the BL21 strain. E. coli were grown to log-phase and infected with T7 phage from a frozen stock (multiplicity of infection=0.4) and incubated with shaking at 32° C. until lysis (90-150 minutes).
(§2) The Hill Slope was set to −1.

The next assay deals with MLKL (full length) (Homo sapiens (Human), UniProt Q8NB16). Put plainly: KINOMEscan binding assay, MLKL (full length). How it is done: as §1, §2
Sequence of MLKL (full length) (Q8NB16 whole entry): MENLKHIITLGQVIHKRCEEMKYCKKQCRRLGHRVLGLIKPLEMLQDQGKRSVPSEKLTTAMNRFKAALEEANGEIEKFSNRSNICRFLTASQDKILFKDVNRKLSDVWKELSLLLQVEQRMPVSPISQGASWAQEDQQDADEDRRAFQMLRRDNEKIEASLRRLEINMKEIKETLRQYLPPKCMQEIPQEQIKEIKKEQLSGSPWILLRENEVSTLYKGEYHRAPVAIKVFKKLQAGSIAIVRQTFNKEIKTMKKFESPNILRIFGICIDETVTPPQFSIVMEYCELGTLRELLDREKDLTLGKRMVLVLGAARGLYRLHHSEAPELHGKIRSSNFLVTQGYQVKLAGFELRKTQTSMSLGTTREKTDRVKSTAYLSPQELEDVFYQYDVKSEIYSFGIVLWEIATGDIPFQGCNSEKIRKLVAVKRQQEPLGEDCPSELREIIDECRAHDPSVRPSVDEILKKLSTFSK

Sequence of RIP3 (Q9Y572 whole entry): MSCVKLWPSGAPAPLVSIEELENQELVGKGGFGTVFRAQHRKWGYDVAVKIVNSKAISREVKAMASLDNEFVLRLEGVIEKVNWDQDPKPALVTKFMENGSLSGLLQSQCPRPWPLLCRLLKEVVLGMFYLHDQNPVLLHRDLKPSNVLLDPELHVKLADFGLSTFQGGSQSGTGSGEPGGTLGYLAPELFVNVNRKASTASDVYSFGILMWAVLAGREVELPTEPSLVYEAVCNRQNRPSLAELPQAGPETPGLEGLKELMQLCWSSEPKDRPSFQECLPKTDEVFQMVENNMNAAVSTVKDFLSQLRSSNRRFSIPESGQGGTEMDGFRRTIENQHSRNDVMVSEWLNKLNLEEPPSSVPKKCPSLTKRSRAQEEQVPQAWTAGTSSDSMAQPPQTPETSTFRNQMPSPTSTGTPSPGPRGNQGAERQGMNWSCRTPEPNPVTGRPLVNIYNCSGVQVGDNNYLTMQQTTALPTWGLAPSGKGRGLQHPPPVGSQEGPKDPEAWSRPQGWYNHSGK
Sequence of RIP1 (Q13546 whole entry): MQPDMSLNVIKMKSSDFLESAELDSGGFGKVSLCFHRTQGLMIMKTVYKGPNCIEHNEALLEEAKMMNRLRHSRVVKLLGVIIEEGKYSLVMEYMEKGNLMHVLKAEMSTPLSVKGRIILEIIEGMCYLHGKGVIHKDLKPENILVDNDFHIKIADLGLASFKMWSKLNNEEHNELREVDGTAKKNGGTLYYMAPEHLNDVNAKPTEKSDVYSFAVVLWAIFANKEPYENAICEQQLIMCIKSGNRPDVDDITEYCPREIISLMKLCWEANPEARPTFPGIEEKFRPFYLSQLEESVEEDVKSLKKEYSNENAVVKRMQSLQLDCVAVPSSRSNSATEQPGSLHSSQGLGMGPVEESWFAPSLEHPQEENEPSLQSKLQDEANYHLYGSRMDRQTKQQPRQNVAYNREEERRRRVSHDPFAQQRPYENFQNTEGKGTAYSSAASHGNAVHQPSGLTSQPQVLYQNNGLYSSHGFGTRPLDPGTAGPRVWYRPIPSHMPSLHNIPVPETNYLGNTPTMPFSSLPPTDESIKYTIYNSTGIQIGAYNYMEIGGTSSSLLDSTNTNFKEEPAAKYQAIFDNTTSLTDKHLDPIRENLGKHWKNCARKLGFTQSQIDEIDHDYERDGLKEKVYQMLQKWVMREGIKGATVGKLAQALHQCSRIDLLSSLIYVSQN

By Kd is commonly meant the constant that tells how readily two partners part at equilibrium. Read a high Kd as lower affinity. For the compound `CCS(=O)(=O)Nc1ccc(-c2n[nH]c(Nc3cnccn3)c2C(N)=O)cc1OCc1ccccc1F` [Compound 2, 3-(4-(ethylsulfonamido)-3-((2-fluorobenzyl)oxy)phenyl)-5-(pyrazin-2-ylamino)-1H-pyrazole-4-carboxamide], the Kd on RIP1 and at RIP3 was greater than 30 µM in each case.

As to `CCS(=O)(=O)Nc1ccc(-c2n[nH]c(Nc3cccc(C(F)(F)F)n3)c2C(N)=O)cc1OCc1cccc(Cl)c1` [Compound 3, 3-(3-((3-chloro-benzyl)oxy)-4-(ethylsulfon-amido)phenyl)-5-((6-(trifluoro-methyl)pyridin-2-yl)amino)-1H-pyrazole-4-carboxamide], the Kd at RIP1 and on RIP3 was greater than 30 µM each time.

Regarding `CCS(=O)(=O)Nc1ccc(-c2n[nH]c(Nc3cccc(C(F)(F)F)n3)c2C(N)=O)cc1OCc1ccc(Cl)cc1` [Compound 4, 3-(3-((4-chloro-benzyl)oxy)-4-(ethylsulfon-amido)phenyl)-5-((6-(trifluoro-methyl)pyridin-2-yl)amino)-1H-pyrazole-4-carboxamide], the dissociation constant Kd on RIP1 and at RIP3 was greater than 30 µM in each case.

As for `CCS(=O)(=O)Nc1ccc(-c2n[nH]c(Nc3cccnc3)c2C(N)=O)cc1OCc1ccc(F)cc1` [Compound 6, 3-(4-(ethylsulfonamido)-3-((4-fluorobenzyl)oxy)phenyl) 5-(pyridin-3-ylamino)-1H-pyrazole-4-carboxamide], the Kd on RIP1 and on RIP3 was greater than 30 µM in each case.

Turning to `CCS(=O)(=O)Nc1ccc(-c2n[nH]c(Nc3cnccn3)c2C(N)=O)cc1OCC1CCN(C(C)=O)CC1` [Compound 7, 3-(3-((1-acetylpiperidin-4-yl)methoxy)-4-(ethylsulfonamido)phenyl)-5-(pyrazin-2-ylamino)-1H-pyrazole-4-carboxamide], the Kd on RIP1 and at RIP3 was greater than 30 µM each time.

As for `CCS(=O)(=O)Nc1ccc(-c2n[nH]c(Nc3cccc(C(F)(F)F)n3)c2C(N)=O)cc1OCc1ccc(F)cc1` [Compound 8, 3-(4-(ethylsulfon-amido)-3-((4-fluoro-benzyl)oxy)phenyl)-5-((6-(trifluoro-methyl)pyridin-2-yl)amino)-1H-pyrazole-4-carboxamide], the Kd on RIP1 and on RIP3 was greater than 30 µM each time.

Consider `CCS(=O)(=O)Nc1ccc(-c2n[nH]c(Nc3cccc(C(F)(F)F)n3)c2C(N)=O)cc1OCC1CCCC1` [Compound 10, 3-(3-(cyclopentyl-methoxy)-4-(ethylsulfon-amido)phenyl)-5-((6-(trifluoro-methyl)pyridin-2-yl)amino)-1H-pyrazole-4-carboxamide], for which the Kd on RIP1 and on RIP3 was greater than 30 µM in each case.

With `CCS(=O)(=O)Nc1ccc(-c2n[nH]c(Nc3cccc(C(F)(F)F)n3)c2C(N)=O)cc1OCC(C)C` [Compound 12, 3-(4-(ethylsulfonamido)-3-isobutoxyphenyl)-5-((6-(trifluoromethyl)pyridin-2-yl)amino)-1H-pyrazole-4-carboxamide], the Kd on RIP1 and at RIP3 was greater than 30 µM in each case.

Consider `CCS(=O)(=O)Nc1ccc(-c2n[nH]c(Nc3cccc(C(F)(F)F)n3)c2C(N)=O)cc1OCc1ccncc1` [Compound 16, 3-(4-(ethylsulfon-amido)-3-(pyridin-4-ylmethoxy)phenyl)-5-((6-(trifluoro-methyl)pyridin-2-yl)amino)-1H-pyrazole-4-carboxamide], for which the Kd on RIP1 and at RIP3 was greater than 30 µM throughout.

For the compound `CCS(=O)(=O)Nc1ccc(-c2n[nH]c(Nc3ccccn3)c2C(N)=O)cc1OCC1CCCCC1` [Compound 35, 3-(3-(cyclohexyl-methoxy)-4-(ethylsulfon-amido)phenyl)-5-(pyridin-2-ylamino)-1H-pyrazole-4-carboxamide], the Kd on RIP1 and on RIP3 was greater than 30 µM each time.

On RIP3, `CCS(=O)(=O)Nc1ccc(-c2n[nH]c(Nc3ccccn3)c2C(N)=O)cc1OCC1CCCC1` [Compound 36, 3-(3-(cyclopentyl-methoxy)-4-(ethylsulfon-amido)phenyl)-5-(pyridin-2-ylamino)-1H-pyrazole-4-carboxamide] had a Kd greater than 30 µM.

For the compound `CCS(=O)(=O)Nc1ccc(-c2n[nH]c(Nc3ccccn3)c2C(N)=O)cc1OCC(C)C` [Compound 37, 3-(4-(ethylsulfonamido)-3-isobutoxyphenyl)-5-(pyridin-2-ylamino)-1H-pyrazole-4-carboxamide], the Kd at RIP1 and at RIP3 was greater than 30 µM in each case.

As to `CCS(=O)(=O)Nc1ccc(-c2n[nH]c(Nc3cncc(C(F)(F)F)n3)c2C(N)=O)cc1` [Compound 44, 3-(4-(ethylsulfonamido)phenyl)-5-((6-(trifluoromethyl)pyrazin-2-yl)amino)-1H-pyrazole-4-carboxamide], the Kd at RIP1 and on RIP3 was greater than 30 µM each time.

Take `CCS(=O)(=O)Nc1ccc(-c2n[nH]c(Nc3cnccn3)c2C(N)=O)cc1OCC(C)C` [Compound 45, 3-(4-(ethylsulfonamido)-3-isobutoxyphenyl)-5-(pyrazin-2-ylamino)-1H-pyrazole-4-carboxamide]: the Kd at RIP3 is greater than 30 µM.

For the compound `COCCS(=O)(=O)Nc1ccc(-c2n[nH]c(Nc3cccc(C(F)(F)F)n3)c2C(N)=O)cc1` [Compound 50, 3-(4-((2-methoxyethyl)sulfonamido)phenyl)-5-((6-(trifluoromethyl)pyridin-2-yl)amino)-1H-pyrazole-4-carboxamide], the Kd at RIP1 and on RIP3 was greater than 30 µM each time.

Regarding `CN(C)CCS(=O)(=O)Nc1ccc(-c2n[nH]c(Nc3cccc(C(F)(F)F)n3)c2C(N)=O)cc1` [Compound 51, 3-(4-((2-(dimethylamino)ethyl)sulfonamido)phenyl)-5-((6-(trifluoromethyl)pyridin-2-yl)amino)-1H-pyrazole-4-carboxamide], the Kd at RIP1 and on RIP3 was greater than 30 µM each time.

Regarding `Cc1ccc(CS(=O)(=O)Nc2ccc(-c3n[nH]c(Nc4cccc(C(F)(F)F)n4)c3C(N)=O)cc2)cc1` [Compound 57, 3-(4-((p-tolylmethyl)sulfonamido)phenyl)-5-((6-(trifluoromethyl)pyridin-2-yl)amino)-1H-pyrazole-4-carboxamide], the Kd on RIP3 was greater than 30 µM.

Regarding `CCS(=O)(=O)Nc1ccc(-c2n[nH]c(Nc3cccnn3)c2C(N)=O)cc1` [Compound 64, 3-(4-ethanesulfonamidophenyl)-5-[(pyridazin-3-yl)amino]-1H-pyrazole-4-carboxamide], the Kd on RIP1 and at RIP3 was greater than 30 µM in each case.

`CCS(=O)(=O)Nc1ccc(-c2n[nH]c(Nc3cnc4cc(Cl)ccc4n3)c2C(N)=O)cc1` [Compound 65, 5-((6-chloroquinoxalin-2-yl)amino)-3-(4-(ethylsulfonamido)phenyl)-1H-pyrazole-4-carboxamide]: the Kd on RIP1 and at RIP3 was greater than 30 µM each time.

With `CC(C)(C)S(=O)(=O)Nc1ccc(-c2n[nH]c(Nc3cnccn3)c2C(N)=O)cc1` [Compound 69, 3-(4-((1,1-dimethylethyl)sulfonamido)phenyl)-5-(pyrazin-2-ylamino)-1H-pyrazole-4-carboxamide], the Kd at RIP1 and on RIP3 was greater than 30 µM throughout.

Take `NC(=O)c1c(-c2ccc(NS(=O)(=O)CC3CCC3)cc2)n[nH]c1Nc1cnccn1` [Compound 81, 3-(4-((cyclobutylmethyl)sulfonamido)phenyl)-5-(pyrazin-2-ylamino)-1H-pyrazole-4-carboxamide]: the Kd on RIP1 and on RIP3 was greater than 30 µM in each case.

Turning to `COc1ccc(S(=O)(=O)Nc2ccc(-c3n[nH]c(Nc4cnccn4)c3C(N)=O)cc2)cc1` [Compound 82, 3-(4-((4-methoxyphenyl)sulfonamido)phenyl)-5-(pyrazin-2-ylamino)-1H-pyrazole-4-carboxamide], the Kd at RIP1 and on RIP3 was greater than 30 µM throughout.

`NC(=O)c1c(-c2ccc(NS(=O)(=O)Cc3cccc(C(F)(F)F)c3)cc2)n[nH]c1Nc1cnccn1` [Compound 83]: the Kd at RIP1 and at RIP3 was greater than 30 µM throughout.

As for `CCS(=O)(=O)Nc1ccc(-c2n[nH]c(NC)c2C(N)=O)cc1` [Compound 119, 3-(4-(ethylsulfonamido)phenyl)-5-(methylamino)-1H-pyrazole-4-carboxamide], on RIP3, the Kd was greater than 30 µM.

In the case of `CCS(=O)(=O)Nc1ccc(-c2n[nH]c(Nc3cnccn3)c2C(N)=O)cc1OCc1c(C)cc(F)cc1C` [Compound 142, 3-(4-(ethylsulfonamido)-3-((4-fluoro-2,6-dimethylbenzyl)oxy)phenyl)-5-(pyrazin-2-ylamino)-1H-pyrazole-4-carboxamide], at RIP3, the Kd is greater than 30 µM.

As to `CCS(=O)(=O)Nc1ccc(-c2n[nH]c(Nc3cnc(C)cn3)c2C(N)=O)cc1OCc1ccc(F)c(Cl)c1` [Compound 150, 3-(3-((3-chloro-4-fluorobenzyl)oxy)-4-(ethylsulfonamido)phenyl)-5-((5-methylpyrazin-2-yl)amino)-1H-pyrazole-4-carboxamide], the Kd is less than 0.01 µM on MLKL (full length) and greater than 30 µM at RIP1.

As for `CCS(=O)(=O)Nc1ccc(-c2n[nH]c(Nc3cnc(C(C)(C)C)cn3)c2C(N)=O)cc1` [Compound 181, 5-((5-(tert-butyl)pyrazin-2-yl)amino)-3-(4-(ethylsulfonamido)phenyl)-1H-pyrazole-4-carboxamide], the Kd on MLKL (full length) was less than 0.01 µM; at RIP1, greater than 30 µM.

As to `NC(=O)c1c(-c2ccc(NS(=O)(=O)CCC(F)(F)F)cc2)n[nH]c1Nc1cccc(C(F)(F)F)n1` [Compound 189, 5-((6-(trifluoromethyl)pyridine-2-yl)amino)-3-(4-((3,3,3-trifluoropropyl)sulfonamido)phenyl)-1H-pyrazole-4-carboxamide], the Kd at MLKL (full length) is less than 0.01 µM; on RIP1 it was greater than 30 µM.

In the case of `CCS(=O)(=O)Nc1ccc(-c2n[nH]c(Nc3ccc(OC)nc3)c2C(N)=O)cc1OCc1ccc(F)cc1` [Compound 197, 3-(4-(ethylsulfonamido)-3-((4-fluorobenzyl)oxy)phenyl)-5-((6-methoxypyridin-3-yl)amino)-1H-pyrazole-4-carboxamide], the equilibrium dissociation constant (Kd) at MLKL (full length) is less than 0.01 µM; on RIP1 it was greater than 30 µM.

The record behind these values is patent US20250074891A1 (Anaxis Pharma Pty Ltd., priority 2021, published 2025).
